The text below walks through data of ChEMBL document CHEMBL5260850, “The exploration of aza-quinolines as hematopoietic prostaglandin D synthase (H-PGDS) inhibitors with low brain exposure” (Bioorg Med Chem, 2020).

≈ marks a conversion by molar mass, not a printed value.

For series [1], the target named is T1, Hematopoietic prostaglandin D synthase (Rattus norvegicus, UniProt O35543).
T1 sequence (O35543 whole entry): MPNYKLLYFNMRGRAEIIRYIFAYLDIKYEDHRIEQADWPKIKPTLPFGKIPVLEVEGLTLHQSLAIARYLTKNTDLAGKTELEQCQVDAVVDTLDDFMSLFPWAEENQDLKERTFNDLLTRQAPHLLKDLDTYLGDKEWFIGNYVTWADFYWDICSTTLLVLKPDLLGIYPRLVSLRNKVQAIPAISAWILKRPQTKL
The experiment in a line: Inhibition of H-PGDS in rat RBL cells assessed as reduction in A23187-induced PGD2 production pretreated for 30 mins followed by A23187 addition for 30 mins by RapidFire Mass spectrometry. The class given is cell-based.

The nature of series [2]: Dissociation constant, pKa of the compound by UV spectroscopy or potentiometric analysis. The class given is physicochemical.
Series [3] in a line: Solubility of the compound in FaSSIF at pH 6.5 measured after 4 hrs by HPLC-UV analysis. Format: ADME.
For a further series, the target named is Albumin (Homo sapiens, UniProt P02768). As to the kind of experiment: Protein binding in human serum albumin by HPLC analysis. Format: ADME, cell-free. Particulars: read-out: PB (converted).
Albumin, sequence (P02768 whole entry): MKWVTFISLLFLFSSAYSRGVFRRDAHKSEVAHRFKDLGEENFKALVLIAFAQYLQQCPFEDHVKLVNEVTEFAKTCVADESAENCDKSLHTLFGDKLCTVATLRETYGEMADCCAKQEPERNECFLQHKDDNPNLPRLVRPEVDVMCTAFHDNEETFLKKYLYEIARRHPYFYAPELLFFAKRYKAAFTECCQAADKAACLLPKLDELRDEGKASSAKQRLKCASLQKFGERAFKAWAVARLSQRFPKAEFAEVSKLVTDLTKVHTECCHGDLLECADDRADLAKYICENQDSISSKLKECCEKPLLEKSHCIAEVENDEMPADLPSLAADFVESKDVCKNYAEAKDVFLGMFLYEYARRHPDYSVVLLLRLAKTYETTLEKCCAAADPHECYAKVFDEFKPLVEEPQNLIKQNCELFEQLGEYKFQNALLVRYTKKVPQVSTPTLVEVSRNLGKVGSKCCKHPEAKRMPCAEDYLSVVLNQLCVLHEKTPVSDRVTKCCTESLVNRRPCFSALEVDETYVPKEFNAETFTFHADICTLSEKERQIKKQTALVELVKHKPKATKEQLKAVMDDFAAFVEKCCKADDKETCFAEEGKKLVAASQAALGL
Series [4] is described as follows: Terminal half life in mouse at 1 mg/kg, iv. The class given is ADME, organism-based. As to conditions: in vivo.
A short description of series [5]: Clearance in mouse at 1 mg/kg, iv. The class given is ADME, organism-based. Particulars: in vivo.
Series [6] can be described thus: Volume of distribution at steady state in mouse at 1 mg/kg, iv. The class given is ADME, organism-based. Particulars: in vivo, read-out: Vdss.
The nature of series [7]: Oral bioavailability in mouse at 3 mg/kg. The class given is ADME, organism-based. As to conditions: in vivo.
A short description of series [8]: Ratio of drug level in brain to blood in mouse at 1 mg/kg, iv. The class given is ADME, organism-based. Particulars: read-out: BBR.
A short description of series [9]: Half life in mouse S9 fraction pretreated for 5 mins followed by incubation with NADP for 30 secs and measured upto 45 mins by LC-MS/MS analysis. The class given is ADME, subcellular. Particulars: time 3030 sec.
Series [10] in a line: Toxicity in chronic eccentric muscle damage C57BL/6N mouse model assessed as seizure-like activity at >=10 mg/kg, po and measured after 4 days. The class given is organism-based. As to conditions: in vivo, 96 h, time 4 day.
Series [11] is described as follows: Toxicity in chronic eccentric muscle damage C57BL/6N mouse model assessed as adverse effects at <=6 mg/kg, po administered for 60 days. Particulars: in vivo, 1440 h, time 60 day. The class given is organism-based.
In series [12] the target is Hematopoietic prostaglandin D synthase (Homo sapiens, UniProt O60760). As to the kind of experiment: Inhibition of human H-PGDS expressed in Escherichia coli BL21 DE3 cells assessed as reduction in PGD2 production using PGH2 as substrate by RapidFire High Throughput Mass spectrometry.
Hematopoietic prostaglandin D synthase (Homo sapiens, UniProt O60760), sequence (O60760 whole entry): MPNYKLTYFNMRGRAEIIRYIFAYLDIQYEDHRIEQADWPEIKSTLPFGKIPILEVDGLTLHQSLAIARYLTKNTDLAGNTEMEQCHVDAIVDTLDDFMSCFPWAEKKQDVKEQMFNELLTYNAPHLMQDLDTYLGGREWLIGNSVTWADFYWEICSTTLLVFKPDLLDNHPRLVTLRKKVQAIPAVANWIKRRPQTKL
Series [13] in a line: Dose normalized AUC in mouse at 3 mg/kg, po. The class given is ADME, organism-based. Details: unit not given here. As to conditions: in vivo.
The nature of series [14]: Apparent permeability, Papp of the compound at pH 7.4 incubated for 3 hrs by AMP based liquid chromatography. Format: ADME. As to conditions: not told.

One may read the EC50 as the concentration needed to bring the measured effect to its halfway point. Usually pKa stands for the negative logarithm of the acid dissociation constant. One may read the solubility as how much of the substance goes into solution per volume. One may read the clearance as a measure of how efficiently the substance is removed, as volume per time. As for `CC(C)(O)[C@H]1CC[C@H](NC(=O)c2cnc3cc(OC(F)F)ccc3c2)CC1`, the EC50 in [1] turned out to be 160 nM. Moreover, in series [2], the pKa is 2.43. Further, the concentration in solution in series [3] (solubility at 4 h) was 70 µg/mL (≈ 185 µM). Also, the fraction unbound on Albumin was 0.12. Besides, the “beta t1/2” value in [4] (iv, 1 mg/kg) was found to be 3.8 h. In addition, the clearance in series [5] turned out to be 5.6 mL/min/kg. In addition, the Vd in series [6] is 1.7 L/kg. Also, the bioavailability in [7] was determined as 61%. For the same compound, the Kp in series [8] is 0.59. Also, the half-life in [9] is more than 3 h. For the same compound, the Activity entry in series [10] is reported as “Toxic”; in series [11], “Non-Toxic”.

In general, IC50 refers to the concentration that gives 50% inhibition. In general, Papp refers to the rate of passage across a membrane or cell layer, normalised by area and donor concentration. `CC(C)(O)[C@H]1CC[C@H](NC(=O)c2cnc3cc(C4CC4)ncc3c2)CC1`: the IC50 in series [12] came to 14 nM. Moreover, the EC50 in series [1] stood at 94 nM. In [13], this compound displayed an AUC/dose of 1040. In series [3], this compound displayed a solubility at 4 h of 27 µg/mL (≈ 76.4 µM). Also, the Papp at 3 h in [14] was determined as 16.5 ×10⁻⁶ cm/s. Also, the fraction unbound at Albumin was 0.16. Further, the half-life in series [4] (read-out: beta t1/2 (converted)) is 1.1 h; in series [9], more than 3 h. In [5], this compound displayed a clearance of 22 mL/min/kg. Moreover, in [6], the Vd was determined as 1.6 L/kg. Moreover, in [7], the bioavailability worked out at 130%. Further, the Kp in series [8] came out at 0.17.

`CC(C)(O)[C@H]1CC[C@H](NC(=O)c2cnc3nc(N4CCC4)ccc3c2)CC1`: the half-maximal inhibitory concentration (IC50) in [12] was 5.3 nM. Besides, the concentration giving a half-maximal response (EC50) in [1] was 75 nM. For the same compound, the AUC/dose in [13] is 72.5. For the same compound, the concentration in solution in [3] (solubility at 4 h) came to 3 µg/mL (≈ 8.14 µM). Also, the Papp at 3 h in series [14] was found to be 2.3 ×10⁻⁶ cm/s. Also, the fraction unbound at Albumin is 0.2. Moreover, the half-life in [9] was more than 3 h.
